This is an account of results in ChEMBL document CHEMBL3638030, “IC50 data for the L-type calcium channel extracted from a set of literature articles”.

For experiment [1], the target named is T1, Voltage-dependent L-type calcium channel subunit alpha-1C (Cavia porcellus, UniProt O35505). The experiment is described as follows: (§1) Inhibition of Cav1.2 calcium current measured using whole cell patch clamp in guinea pig ventricular myocytes. The class given is functional, cell-based, Heart, Ventricular myocyte. Set-up: ca sol conc 1.8 mM, temp 24-26 C.

The target in experiment [2] is T1, Voltage-dependent L-type calcium channel subunit alpha-1C. Described as §1. Type of experiment: functional, cell-based, Heart, Ventricular myocyte. Details: ca sol conc 1.8 mM.
Experiment [3] deals with T2, Voltage-dependent L-type calcium channel subunit alpha-1C (Rattus norvegicus, UniProt P22002). The experiment is described as follows: Inhibition of Cav1.2 calcium current measured using whole cell patch clamp in rat atrial myocytes. Details: ca sol conc 2 mM, temp 22-24 C. Type of experiment: functional, cell-based, Heart, Cardiac Muscle Cell. (In patch-clamp work, channel activity is measured electrically.)

Experiment [4] addresses T2, Voltage-dependent L-type calcium channel subunit alpha-1C. The experiment is described as follows: (§2) Inhibition of Cav1.2 calcium current measured using FLIPR in rat aortic A7r5 cells. Type of experiment: functional, cell-based.
The target of experiment [5] is T1, Voltage-dependent L-type calcium channel subunit alpha-1C. Described as §1. Type of experiment: functional, cell-based, Heart, Ventricular myocyte. Set-up: ca sol conc 1.8 mM, temp 19 C.
Experiment [6] concerns the target T2, Voltage-dependent L-type calcium channel subunit alpha-1C. The experiment is described as follows: Inhibition of Cav1.2 calcium current measured using whole cell patch clamp in rat Artery myocytes. Type of experiment: functional, cell-based, Tail. Set-up: ca sol conc 5 mM, temp 20-22 C.
In experiment [7] the target is L-type calcium channel alpha 1C/beta 2A (Oryctolagus cuniculus, UniProt P15381+P54288). Nature of the experiment: Inhibition of Cav1.2 calcium current measured using whole cell patch clamp in human HEK293 cells transfected with rabbit L-type calcium channel subunits. The class given is functional, cell-based. Set-up: ca sol conc 5 mM, temp room.
The target of experiment [8] is T1, Voltage-dependent L-type calcium channel subunit alpha-1C. Described as §1. The class given is functional, cell-based, Heart, Ventricular myocyte. Details: ca sol conc 1.8 mM, temp room.
For experiment [9], the target named is T2, Voltage-dependent L-type calcium channel subunit alpha-1C. The experiment is described as follows: (§3) Inhibition of Cav1.2 calcium current measured using whole cell patch clamp in rat ventricular myocytes. Type of experiment: functional, cell-based, Heart, Ventricular myocyte. Set-up: ca sol conc 1.8 mM, temp 25 C.
The target in experiment [10] is T3, Voltage-dependent L-type calcium channel subunit alpha-1C (Mus musculus, UniProt Q01815). Nature of the experiment: (§4) Inhibition of Cav1.2 calcium current measured using whole cell patch clamp in mouse ventricular myocytes. The class given is functional, cell-based, Heart, Ventricular myocyte. Set-up: ca sol conc 2 mM, temp room.
The target in experiment [11] is T3, Voltage-dependent L-type calcium channel subunit alpha-1C. The description is as §4. Details: ca sol conc 2 mM, temp room. Type of experiment: functional, cell-based, Heart, Ventricular myocyte. The source holds these as a separate data set.
For experiment [12], the target named is T1, Voltage-dependent L-type calcium channel subunit alpha-1C. Described as §1. Type of experiment: functional, cell-based, Heart, Ventricular myocyte. Set-up: ca sol conc 0.5 mM.
Experiment [13] has the same target. The description is as §1. Type of experiment: functional, cell-based, Heart, Ventricular myocyte. Details: ca sol conc 1.8 mM, temp 25-27 C.
Experiment [14] has as its target Voltage-dependent L-type calcium channel subunit alpha-1C (Homo sapiens, UniProt Q13936). Nature of the experiment: Inhibition of Cav1.2 calcium current measured using Voltage-clamp 2-electrode in Xenopous Oocyte transfected with human L-type calcium channel. Type of experiment: functional, cell-based, Xenopus. Set-up: ca sol conc 4 - Ba(OH)2 mM, temp 20-22 C.
Experiment [15] addresses T1, Voltage-dependent L-type calcium channel subunit alpha-1C. The experiment is described as §1. Details: ca sol conc 1.8 mM. Type of experiment: functional, cell-based, Heart, Ventricular myocyte. The source holds these as a separate data set.
For experiment [16], the target named is T2, Voltage-dependent L-type calcium channel subunit alpha-1C. The experiment is described as §2. Type of experiment: functional, cell-based. The source holds these as a separate data set.
Experiment [17] has the same target. The experiment is described as §3. Type of experiment: functional, cell-based, Heart, Ventricular myocyte. Set-up: ca sol conc 2 mM, temp room.
Experiment [18] has the same target. The experiment is described as §3. The class given is functional, cell-based, Heart, Ventricular myocyte. Set-up: ca sol conc 1.8 mM, temp 25-27 C.
Experiment [19] has as its target T1, Voltage-dependent L-type calcium channel subunit alpha-1C. Described as §1. Set-up: ca sol conc 1.8 mM, temp 35-36 C. The class given is functional, cell-based, Heart, Ventricular myocyte.

T1 sequence (O35505 whole entry): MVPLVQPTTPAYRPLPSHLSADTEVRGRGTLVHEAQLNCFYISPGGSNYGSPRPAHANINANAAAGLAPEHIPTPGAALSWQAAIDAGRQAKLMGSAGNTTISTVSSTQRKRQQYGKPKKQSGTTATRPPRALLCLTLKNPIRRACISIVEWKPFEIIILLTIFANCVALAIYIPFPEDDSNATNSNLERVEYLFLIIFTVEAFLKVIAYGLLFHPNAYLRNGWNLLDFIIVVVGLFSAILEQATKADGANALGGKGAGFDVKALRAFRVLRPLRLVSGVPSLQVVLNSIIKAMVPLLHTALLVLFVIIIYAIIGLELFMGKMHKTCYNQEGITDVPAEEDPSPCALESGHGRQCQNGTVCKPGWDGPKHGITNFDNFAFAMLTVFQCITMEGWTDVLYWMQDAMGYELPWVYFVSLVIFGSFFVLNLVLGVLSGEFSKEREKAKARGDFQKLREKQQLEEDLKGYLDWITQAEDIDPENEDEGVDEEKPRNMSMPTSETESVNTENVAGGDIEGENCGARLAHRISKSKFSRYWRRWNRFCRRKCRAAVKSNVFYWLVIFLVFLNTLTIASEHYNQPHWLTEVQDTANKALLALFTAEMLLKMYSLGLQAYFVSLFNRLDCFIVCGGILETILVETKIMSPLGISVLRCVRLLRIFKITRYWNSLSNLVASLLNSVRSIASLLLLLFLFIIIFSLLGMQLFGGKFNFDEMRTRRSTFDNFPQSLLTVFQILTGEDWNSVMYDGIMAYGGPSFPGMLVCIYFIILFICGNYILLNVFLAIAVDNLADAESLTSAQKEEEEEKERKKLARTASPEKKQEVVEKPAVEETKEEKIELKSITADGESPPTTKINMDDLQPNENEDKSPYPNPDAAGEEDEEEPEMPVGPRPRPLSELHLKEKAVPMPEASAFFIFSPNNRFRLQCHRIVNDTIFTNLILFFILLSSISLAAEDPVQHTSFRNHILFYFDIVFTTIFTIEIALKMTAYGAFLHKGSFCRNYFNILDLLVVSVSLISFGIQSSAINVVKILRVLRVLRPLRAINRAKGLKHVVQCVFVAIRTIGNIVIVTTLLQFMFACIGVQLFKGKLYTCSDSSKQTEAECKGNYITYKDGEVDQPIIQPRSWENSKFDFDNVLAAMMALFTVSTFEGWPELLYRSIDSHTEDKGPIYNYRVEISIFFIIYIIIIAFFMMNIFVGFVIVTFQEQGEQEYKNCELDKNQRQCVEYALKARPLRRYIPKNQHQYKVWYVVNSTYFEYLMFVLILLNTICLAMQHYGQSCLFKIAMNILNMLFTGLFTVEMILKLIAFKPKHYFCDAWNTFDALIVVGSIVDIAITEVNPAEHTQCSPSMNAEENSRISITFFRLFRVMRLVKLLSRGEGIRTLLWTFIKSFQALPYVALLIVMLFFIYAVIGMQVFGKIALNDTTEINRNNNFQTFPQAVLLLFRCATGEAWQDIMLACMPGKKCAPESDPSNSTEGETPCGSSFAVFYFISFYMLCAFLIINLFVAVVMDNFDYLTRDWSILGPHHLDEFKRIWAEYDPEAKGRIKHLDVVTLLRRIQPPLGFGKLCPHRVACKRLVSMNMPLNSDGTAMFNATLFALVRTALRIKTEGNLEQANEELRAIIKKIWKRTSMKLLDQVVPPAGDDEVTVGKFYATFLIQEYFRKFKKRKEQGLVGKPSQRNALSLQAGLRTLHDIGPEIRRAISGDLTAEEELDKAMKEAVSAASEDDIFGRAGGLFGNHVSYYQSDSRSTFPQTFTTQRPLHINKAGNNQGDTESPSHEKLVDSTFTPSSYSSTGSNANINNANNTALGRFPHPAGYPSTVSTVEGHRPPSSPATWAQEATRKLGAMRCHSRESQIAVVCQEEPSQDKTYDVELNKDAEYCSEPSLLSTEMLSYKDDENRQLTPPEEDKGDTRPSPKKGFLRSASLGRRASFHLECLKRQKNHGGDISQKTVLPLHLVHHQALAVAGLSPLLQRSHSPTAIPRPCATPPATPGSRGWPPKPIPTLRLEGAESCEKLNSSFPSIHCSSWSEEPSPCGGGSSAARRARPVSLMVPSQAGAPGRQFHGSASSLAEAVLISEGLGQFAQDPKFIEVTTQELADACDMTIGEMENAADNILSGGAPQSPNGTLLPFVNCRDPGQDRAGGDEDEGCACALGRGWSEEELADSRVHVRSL
T2 sequence (P22002 whole entry): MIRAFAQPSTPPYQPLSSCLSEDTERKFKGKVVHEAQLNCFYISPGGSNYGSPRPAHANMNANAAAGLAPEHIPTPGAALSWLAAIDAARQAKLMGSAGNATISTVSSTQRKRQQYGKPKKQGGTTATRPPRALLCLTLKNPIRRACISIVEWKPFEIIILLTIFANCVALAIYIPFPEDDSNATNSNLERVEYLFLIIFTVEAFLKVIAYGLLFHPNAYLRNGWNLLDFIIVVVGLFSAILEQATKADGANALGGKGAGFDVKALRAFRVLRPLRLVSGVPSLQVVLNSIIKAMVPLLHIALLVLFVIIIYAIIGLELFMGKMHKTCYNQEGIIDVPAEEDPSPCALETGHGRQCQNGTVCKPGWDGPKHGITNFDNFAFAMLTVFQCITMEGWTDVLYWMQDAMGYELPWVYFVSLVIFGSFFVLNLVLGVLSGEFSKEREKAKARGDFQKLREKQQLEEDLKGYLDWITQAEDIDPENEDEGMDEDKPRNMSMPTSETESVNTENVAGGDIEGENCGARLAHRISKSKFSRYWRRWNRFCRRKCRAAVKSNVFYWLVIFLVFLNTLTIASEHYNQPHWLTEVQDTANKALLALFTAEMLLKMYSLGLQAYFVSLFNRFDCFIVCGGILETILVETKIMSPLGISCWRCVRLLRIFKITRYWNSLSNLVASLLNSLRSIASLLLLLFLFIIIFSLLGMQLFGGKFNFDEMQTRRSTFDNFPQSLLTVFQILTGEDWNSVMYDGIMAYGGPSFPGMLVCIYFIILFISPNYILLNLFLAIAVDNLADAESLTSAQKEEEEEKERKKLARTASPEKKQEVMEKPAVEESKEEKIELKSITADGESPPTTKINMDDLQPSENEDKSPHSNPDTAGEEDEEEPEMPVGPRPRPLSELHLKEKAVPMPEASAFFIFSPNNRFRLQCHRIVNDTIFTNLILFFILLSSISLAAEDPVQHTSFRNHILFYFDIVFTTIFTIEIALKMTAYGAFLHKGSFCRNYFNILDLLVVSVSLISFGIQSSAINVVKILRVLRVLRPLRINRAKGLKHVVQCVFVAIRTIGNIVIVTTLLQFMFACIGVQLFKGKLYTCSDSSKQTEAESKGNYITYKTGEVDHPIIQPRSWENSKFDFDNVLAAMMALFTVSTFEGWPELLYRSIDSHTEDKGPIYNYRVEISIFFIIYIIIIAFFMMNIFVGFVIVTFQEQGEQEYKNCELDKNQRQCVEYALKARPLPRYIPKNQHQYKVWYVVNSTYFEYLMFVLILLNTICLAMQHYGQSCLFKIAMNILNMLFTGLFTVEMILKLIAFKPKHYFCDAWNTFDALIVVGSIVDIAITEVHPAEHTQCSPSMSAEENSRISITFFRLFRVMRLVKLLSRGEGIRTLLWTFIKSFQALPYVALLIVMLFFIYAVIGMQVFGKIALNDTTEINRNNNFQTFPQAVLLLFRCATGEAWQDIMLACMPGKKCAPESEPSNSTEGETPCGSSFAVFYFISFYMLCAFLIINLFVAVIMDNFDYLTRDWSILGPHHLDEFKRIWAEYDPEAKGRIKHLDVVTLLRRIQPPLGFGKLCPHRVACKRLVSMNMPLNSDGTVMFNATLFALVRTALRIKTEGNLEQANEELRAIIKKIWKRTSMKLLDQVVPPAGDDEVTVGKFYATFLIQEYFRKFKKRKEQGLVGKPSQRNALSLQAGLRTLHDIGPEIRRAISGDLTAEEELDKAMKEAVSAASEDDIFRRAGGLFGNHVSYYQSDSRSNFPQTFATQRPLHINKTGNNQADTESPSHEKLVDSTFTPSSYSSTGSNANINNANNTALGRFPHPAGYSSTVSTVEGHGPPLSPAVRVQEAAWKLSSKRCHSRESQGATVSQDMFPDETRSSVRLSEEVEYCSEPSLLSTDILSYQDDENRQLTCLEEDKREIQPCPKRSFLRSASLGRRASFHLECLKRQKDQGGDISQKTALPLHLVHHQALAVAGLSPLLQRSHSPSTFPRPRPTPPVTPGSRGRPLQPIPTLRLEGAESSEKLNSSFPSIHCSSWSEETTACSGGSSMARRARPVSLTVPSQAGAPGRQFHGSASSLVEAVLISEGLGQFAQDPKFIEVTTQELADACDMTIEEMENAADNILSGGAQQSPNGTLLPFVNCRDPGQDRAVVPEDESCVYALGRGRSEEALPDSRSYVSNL

The term IC50 denotes the concentration needed to halve the response being measured. In the case of `CC(=O)N(CCOc1cccc2ccccc12)CCc1ccc(NS(C)(=O)=O)cc1`, the IC50 in [1] came to 0.909 µM.
For the molecule `COc1ccc2c(c1)CN(C(=O)CCN1CCC(Cc3ccccc3)CC1)CCS2`, the concentration for half-maximal inhibition (IC50) in [2] is 3 µM.
As to `O=C1CSC(c2ccccc2Cl)c2cc(Cl)ccc2N1` (configuration not stated), in experiment [3], the half-maximal inhibitory concentration (IC50) was 0.27 µM.
On to `CCC(CC)(CNC(=O)C1CCN(CCc2ccccc2)CC1)c1ccc(F)cc1`, for which the half-maximal inhibitory concentration (IC50) in experiment [4] is 4.4 µM.
For `COc1ccc(CCNC(C)COc2c(C)cccc2C)cc1OC` (configuration not stated), in experiment [5], the 50% inhibitory concentration (IC50) was found to be 28.5 µM.
In the case of `O=c1cc(-c2ccccc2O)oc2cc(O)cc(O)c12`, the IC50 in experiment [6] turned out to be 45.1 µM.
Turning to `COc1ccc2c(c1)c(C1=C(c3c[nH]c4ccccc34)C(=O)NC1=O)cn2CCCN(C)C`, in experiment [7], the half-maximal inhibitory concentration (IC50) was 20 µM.
Turning to `N#Cc1cc2c(OCC(O)CN3CCN(C(c4ccccc4)c4ccccc4)CC3)cccc2[nH]1` (configuration not stated), in experiment [8], the 50% inhibitory concentration (IC50) worked out at 1.1 µM.
With `COc1ccc(CCN(C)CCCOc2ccc(S(=O)(=O)c3c(C(C)C)c4ccccc4n3C)cc2)cc1OC`, the IC50 in [9] amounted to 0.024 µM; in experiment [10] it was 0.0041 µM; in experiment [11], 0.033 µM.
Consider `Cc1cc2c(OCC(O)CN3CCN(C(c4ccccc4)c4ccccc4)CC3)cccc2[nH]1` (configuration not stated), for which the IC50 in experiment [8] turned out to be 3.6 µM.
In the case of `COc1ccc2c(c1OC)C[N+]1(Cc3ccc(Cl)cc3)CCc3cc4c(cc3C1C2)OCO4` (configuration not stated), in experiment [12], the IC50 stood at 11.5 µM.
Consider `COc1ccc2c(=O)c3c(n(Cc4ccccc4)c2c1)OCC3=O`, for which, in experiment [13], the half-maximal inhibitory concentration (IC50) is 4 µM.
Take `CCN(CC)CC(=O)N1C[C@@H](c2ccc(Cl)cc2)Sc2ccccc21`: the 50% inhibitory concentration (IC50) in experiment [14] stood at 52 µM.
As for `COc1cccc(/C=C/CN2CCC(=C3c4ccccc4C=Cc4ccccc43)CC2)c1[N+](=O)[O-]`, the IC50 is 4.91 µM in [2] and 0.32 µM in experiment [15].
Take `COc1cc(C[C@H](C)[C@@H](C)C(=O)c2ccc(O)c(OC)c2)ccc1O`: the concentration for half-maximal inhibition (IC50) in [13] came out at 7.5 µM.
On to `COc1cccc(CCN2CCC(CC(=O)N[C@@H](c3ccc(F)cc3)C(C)C)CC2)c1`, for which the IC50 in experiment [16] amounted to 7 µM; in experiment [4], 2.2 µM.
For `CC(C)[C@@H](NC(=O)CC1CCN(CCc2ccccc2)CC1)c1ccc(F)cc1`, the IC50 in [4] is 10 µM.
On the same count and under the same terms, next, `CC(C)[C@@H](NC(=O)NC1CCN(CCc2ccccc2)CC1)c1ccc(F)cc1`: 5 µM; `CC(C)C(CNC(=O)C1CCN(CCc2ccccc2)CC1)c1ccc(F)cc1` (configuration not stated): 3.9 µM.
Take `COc1ccccc1CCN1CCC(CC(=O)N[C@@H](c2ccc(F)cc2)C(C)C)CC1`: the IC50 in [4] worked out at 6.8 µM.
On the same count and under the same terms, next, `COCCOc1c(F)cccc1CCN1CCC(CC(=O)N[C@@H](c2ccc(F)cc2)C(C)C)CC1`: 2.1 µM; `COCCOc1cc(F)ccc1CCN1CCC(CC(=O)N[C@@H](c2ccc(F)cc2)C(C)C)CC1`: 1.9 µM.
Regarding `COCCOc1ccc(F)cc1CCN1CCC(CC(=O)N[C@@H](c2ccc(F)cc2)C(C)C)CC1`, the IC50 in experiment [4] stood at 3.1 µM.
On the same count and under the same terms, the same measure for `COCCOc1cccc(F)c1CCN1CCC(CC(=O)N[C@@H](c2ccc(F)cc2)C(C)C)CC1`: 3.1 µM.
For the molecule `COCCOc1ccccc1CCN1CCC(CC(=O)N[C@@H](c2ccc(F)cc2)C(C)C)CC1`, the IC50 in experiment [17] stood at 38 µM.
On to `O=C1COc2c1c(=O)c1ccc(Br)cc1n2Cc1ccccc1F`, for which the IC50 in experiment [18] came out at 4.9 µM.
For `CCNCC#CC(C)(C)OC(=O)C(O)(c1ccccc1)C1CCCCC1` (configuration not stated), the half-inhibitory concentration (IC50) in experiment [19] is 27 µM.
`COc1ccc2c(c1OC)[C@@H]1Cc3cc4c(cc3[C@H](C2)N1C)OCO4`: the half-maximal inhibitory concentration (IC50) in experiment [18] was 6.6 µM.
